In patent US9572788B2, “Cell permeable inhibitors of anaphase promoting complex” (President and Fellows of Harvard College, priority 2014, dated 2017):

Legend:
APC = APC (Xenopus laevis, UniProt A0A1L8ESF3); experiment: Cyclin B1-luciferase reporter degradation (luciferase assay) in mitotic Xenopus egg extract; type: biochemical; settings: mitotic Xenopus extract
Method: The extract was incubated at room temperature and 3 μL samples were taken at 0, 20, 40 and 60 min.

HeLa H2B-GFP cells [1] = experiment: Chromosome congression analysis; type: cell-based, human; settings: for Congression delay: 10 nM nocodazole or 12 μM proTAME; for Average chromosome congression time / Median chromosome congression time: Fig S4C
Method: HeLa H2B-GFP cells were plated in 35 mm glass-bottom dishes (MatTek) in DMEM+10% FBS at 20% confluence one day prior to the experiment and synchronized by double thymidine block as described above. Drugs were added as follows to a final volume of 3 ml from 2× concentrated preparation in culture medium. DMSO (0.06%), proTAME (3 and 12 μM) or 10 nM Nocodazole were added 8 h after release from the second block, while MG132 (10 μM) was added at 10 h. H2B-GFP was imaged for 4 hrs every 3 min at 40× magnification as described above.

HeLa H2B-GFP cells [2] = experiment: Mitotic entry monitored by time-lapse imaging; type: cell-based, human; settings: for Average time of mitotic entry / Median time of mitotic entry: Fig 4E
HeLa H2B-RFP cells = experiment: Exogenous cyclin-GFP expression, live-cell imaging and quantitation; type: cell-based, human; settings: Fig 5D; GFP at 60 min vs onset of mitosis; 20 μM proTAME or proAAME, 150 nM nocodazole
Method: HeLa H2B-RFP cells were transduced with cyclin B1-GFP or cyclin A2-GFP adenovirus for 40 h. Phenol Red-Free DMEM (Mediatech) supplemented with 10% FBS and 1:100 Penicillin-Streptomycin-Glutamine (Mediatech) was used as imaging medium. 20 μM proAAME, 20 μM proTAME or 150 nM nocodazole was added 45 min prior to the start of imaging. Live cell imaging was set up as described above except that the cells were plated in an 8-well chambered coverglasses (NUNC Lab-tek 155411). Four positions per treatment group were imaged with DIC transmitted light, red fluorescence, and green fluorescence (Semrock GFP/HcRed “Pinkel” filter set) at 12 min intervals for 24 h. Stacks of red and green fluorescence were merged, saved as AVI video files and analyzed using ImageJ. For quantitation, the first GFP-positive cells that undergo mitosis in three separate movies were chosen, giving at least 30 cells quantitated for each treatment group. Mean intensity values for the green channel were collected for a cytoplasmic region of a cell upon mitotic entry, mitotic exit, or after 1 h of mitotic arrest. At the same time points, background mean green intensity was determined and individually subtracted from the cytoplasmic mean intensity. This background corrected mean intensity value was then used to determine the percentage of the original GFP signal remaining at the completion of division (for the control cells) or after 1 h of mitotic arrest (for the nocodazole and proTAME treated cells). The average values for all quantitated cells were plotted with the error bars representing standard error of the mean.

[3] = ProTAME activation analysis (LC/MS) in extract; type: in vitro ADME; settings: 50 μM in interphase Xenopus extract
Method: ProTAME was added to interphase Xenopus extract at 50 μM or cell growth media at 20 μM. For interphase extract, 800 μl of sample was collected at 0 min, 10 min, 20 min and 30 min after addition of proTAME and diluted to 8 ml with XB. For cell culture, approximately 800,000 cells were collected at 1 h, 2 h and 3 h after addition of proTAME and lysed in 400 μl lysis buffer as described above and subsequently diluted to 4 ml with lysis buffer. The diluted extract or cell lysate was extracted with 1.5 volume of ethyl acetate. The extracts were dried in vacuo and the dry extracts were resuspended in 200 μl of methanol for LC/MS analysis. LC/MS data were obtained using an Agilent series 1200 LC/6130 MS system with a reversed-phase C18 column (Phenomenex Luna C18(2), 4.6 mm×100 mm, 5 μm) and a CH3CN/H2O gradient solvent system beginning with 10% aqueous CH3CN and ending at 100% CH3CN at 20 min. 10 μl of each sample was injected for each analysis.

[4] = proTAME 12 μM, MG132 10 μM, nocodazole 10 nM
[5] = 12 μM proTAME added at 0 hr after release from thymidine block
[6] = 12 μM proTAME added at 2 hrs after release
[7] = 12 μM proTAME added at 4 hrs after release
[8] = 12 μM proTAME added at 6 hrs after release
[9] = 12 μM proTAME added at 8 hrs after release

Chain of APC (A0A1L8ESF3 entry or part of it): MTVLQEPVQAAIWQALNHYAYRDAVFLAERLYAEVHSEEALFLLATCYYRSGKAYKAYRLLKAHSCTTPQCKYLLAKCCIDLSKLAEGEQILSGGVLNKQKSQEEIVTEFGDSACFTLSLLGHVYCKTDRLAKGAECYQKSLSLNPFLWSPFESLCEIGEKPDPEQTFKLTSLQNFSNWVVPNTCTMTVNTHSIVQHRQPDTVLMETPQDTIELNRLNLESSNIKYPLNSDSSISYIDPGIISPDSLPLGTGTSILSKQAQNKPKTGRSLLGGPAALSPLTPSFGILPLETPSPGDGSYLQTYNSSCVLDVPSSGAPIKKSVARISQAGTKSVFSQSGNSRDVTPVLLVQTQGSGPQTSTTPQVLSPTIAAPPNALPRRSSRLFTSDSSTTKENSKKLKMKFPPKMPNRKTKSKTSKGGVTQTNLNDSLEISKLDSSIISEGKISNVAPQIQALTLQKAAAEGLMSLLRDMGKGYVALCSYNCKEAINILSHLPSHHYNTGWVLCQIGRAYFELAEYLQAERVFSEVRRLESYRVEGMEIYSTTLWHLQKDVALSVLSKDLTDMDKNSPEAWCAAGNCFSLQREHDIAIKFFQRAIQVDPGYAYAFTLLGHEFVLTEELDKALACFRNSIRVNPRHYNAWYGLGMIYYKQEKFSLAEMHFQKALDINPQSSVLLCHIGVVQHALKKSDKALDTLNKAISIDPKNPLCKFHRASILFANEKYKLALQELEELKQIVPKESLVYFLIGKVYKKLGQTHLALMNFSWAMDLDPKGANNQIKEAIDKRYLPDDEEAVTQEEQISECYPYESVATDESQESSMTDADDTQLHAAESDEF
Chain of APC (Q6DFD4 entry or part of it, further chain): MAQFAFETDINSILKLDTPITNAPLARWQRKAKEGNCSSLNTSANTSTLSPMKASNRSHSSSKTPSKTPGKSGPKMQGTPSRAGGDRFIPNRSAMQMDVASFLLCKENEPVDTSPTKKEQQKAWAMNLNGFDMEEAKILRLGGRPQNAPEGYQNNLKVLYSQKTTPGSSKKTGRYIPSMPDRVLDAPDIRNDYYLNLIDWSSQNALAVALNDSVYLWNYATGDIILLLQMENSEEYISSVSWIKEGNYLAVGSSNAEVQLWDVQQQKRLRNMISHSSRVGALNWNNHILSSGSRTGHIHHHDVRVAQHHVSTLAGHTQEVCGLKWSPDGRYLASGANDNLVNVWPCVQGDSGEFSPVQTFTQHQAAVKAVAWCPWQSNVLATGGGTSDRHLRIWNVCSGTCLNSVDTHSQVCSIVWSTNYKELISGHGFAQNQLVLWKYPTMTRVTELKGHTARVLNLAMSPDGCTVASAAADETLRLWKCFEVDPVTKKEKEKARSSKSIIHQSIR

## COC(=O)[C@H](CCCN/C(=N\C(=O)OCOC(=O)Cc1ccccc1)NC(=O)OCOC(=O)Cc1ccccc1)NS(=O)(=O)c1ccc(C)cc1 [proTAME]
APC
  Inhibition of cyclin B-luciferase proteolysis: efficiently inhibits cyclin B-luciferase proteolysis
HeLa H2B-GFP cells [1]
  Congression delay: 6 min
HeLa H2B-GFP cells [1]; 3 μM proTAME or 10 μM MG132
  Delay in chromosome congression: caused no delay in chromosome congression
HeLa H2B-GFP cells [1]; Example 2, 12 (μM) proTAME, 15 minutes for DMSO
  Time to achieve metaphase, average: 40 min
HeLa H2B-GFP cells [1]; proTAME 3 μM
  Average chromosome congression time: 21.7 min
  Median chromosome congression time: 21 min
HeLa H2B-GFP cells [1]; [4]
  Average chromosome congression time: 26.0 min
  Median chromosome congression time: 24 min
HeLa H2B-GFP cells [2]; [5]
  Average time of mitotic entry: 712.8 min
  Median time of mitotic entry: 696 min
HeLa H2B-GFP cells [2]; [6]
  Average time of mitotic entry: 669.0 min
  Median time of mitotic entry: 660 min
HeLa H2B-GFP cells [2]; [7]
  Average time of mitotic entry: 636.6 min
  Median time of mitotic entry: 624 min
HeLa H2B-GFP cells [2]; [8]
  Average time of mitotic entry: 619.4 min
  Median time of mitotic entry: 612 min
HeLa H2B-GFP cells [2]; [9]
  Average time of mitotic entry: 622.6 min
  Median time of mitotic entry: 612 min
HeLa H2B-GFP cells [2]; added 6 hour or later after release
  Delay in mitotic entry: did not delay mitotic entry
HeLa H2B-GFP cells [2]; added during release from a double thymidine block
  Delay in mitotic entry: 2 h
HeLa H2B-RFP cells
  Average cyclin A2-GFP (fraction remaining): 0.99 fraction remaining
  Average cyclin B1-GFP (fraction remaining): 1.17 fraction remaining
  Median cyclin A2-GFP (fraction remaining): 0.95 fraction remaining
  Median cyclin B1-GFP (fraction remaining): 1.17 fraction remaining
[3]
  Conversion of prodrug to TAME: rapidly converted to TAME

## COC(=O)Nc1nc2ccc(C(=O)c3cccs3)cc2[nH]1 [Nocodazole, reference compound]
HeLa H2B-GFP cells [1]
  Congression delay: 6 min
HeLa H2B-GFP cells [1]; [4]
  Average chromosome congression time: 26.2 min
  Median chromosome congression time: 24 min
HeLa H2B-RFP cells
  Average cyclin A2-GFP (fraction remaining): 0.28 fraction remaining
  Average cyclin B1-GFP (fraction remaining): 0.87 fraction remaining
  Median cyclin A2-GFP (fraction remaining): 0.28 fraction remaining
  Median cyclin B1-GFP (fraction remaining): 0.83 fraction remaining
